# Test results reported in patent US20090181898A1, “ABUSE-RESISTANT A[…]” (SHIRE LLC, priority 2002, published 2009).
# Marks after values point to notes of the source that are not given here.
# Experiments:
# [1] = system: rats; assay: Horizontal locomotor activity after oral administration; type: in vivo, Sprague-Dawley rats; parameters: Time of Peak (Counts per 0.2 h): unit not given here; details: rats, oral gavage 6 mg/kg
# [2] = system: rats; assay: Locomotor activity after intranasal administration with and without CMC; type: in vivo, Sprague-Dawley rats; details: rats, intranasal 1.0 mg/kg, 1 h
# Source text: The CMC drug mixtures were suspended thoroughly before each dose was delivered.
# [3] = system: rats; assay: Locomotor activity after intravenous administration; type: in vivo, Sprague-Dawley rats; details: rat, 1.0 mg/kg
# [4] = Intranasal bioavailability (LC/MS/MS); details: rat, intranasal, 3 mg/kg
# [5] = Oral bioavailability at escalating doses (LC/MS/MS); details: rat; for AUC0-8 of d-amphetamine / AUCinf of d-amphetamine / F of d-amphetamine / Tmax of d-amphetamine / Cmax of d-amphetamine / AUCinf alt. calc. of d-amphetamine: oral; for Cmax of d-amphetamine: LC/MS/MS; for AUCinf alt. calc. of d-amphetamine: WinNonlin, in ng·h/mL
# [6] = system: stimulant abusers; assay: Abuse liability of intravenous L-lysine-d-amphetamine in stimulant abusers; details: d-amphetamine 20 mg
# [7] = system: anesthetized dog; assay: Cardiovascular effects following intravenous injection in the anesthetized dog; details: iv 0.202 mg/kg
# [8] = IV, L-lysine-d-amphetamine 50 mg
substance,measurement,setting,value
d-amphetamine,Peak of activity (Counts per 0.2 h),[1]; 5 h experiment,291 Counts per 0.2 h
same,Time of Last Count Above 200 per 0.2 h,[1]; 5 h experiment,2.6 h
same,Time of Peak (Counts per 0.2 h),[1]; 5 h experiment,0.6
same,Total Activity Counts,[1]; 5 h experiment,515
same,Total Activity Counts Above Baseline,[1]; 5 h experiment,0
same,Peak of activity (Counts per 0.2 h),[1]; 12 h experiment,223 Counts per 0.2 h
same,Time of Last Count Above 200 per 0.2 h,[1]; 12 h experiment,6.4 h
same,Time of Peak (Counts per 0.2 h),[1]; 12 h experiment,0.6
same,Total Activity Counts,[1]; 12 h experiment,6622
same,Total Activity Counts Above Baseline,[1]; 12 h experiment,5686
same,Total Activity Counts (1 h),[2],858
same,Total Activity Counts Above Baseline,[2],686
same,Total Activity Counts (3 h),[3],1659
same,"Activity above baseline, Percent Amp",[3]; 3 h,100%
same,Total Activity Counts Above Baseline,[3]; 3 h,1355
same,AUC0-1 of d-amphetamine,[4],1032 ng·h/mL
same,AUCinf of d-amphetamine,[4],7291 ng·h/mL
same,Cmax of d-amphetamine,[4]; LC/MS/MS,1962.9 ng/mL
same,AUCinf alt. calc. of d-amphetamine,[4]; in ng·h/mL,"1,267"
same,AUC (0-1.5) of d-amphetamine,"[5]; in vivo, po, 60 mg/kg","14,281** ng · h/mL"
same,AUC0-8 of d-amphetamine,[5]; 3 mg/kg,885 ng·h/mL
same,AUCinf of d-amphetamine,[5]; 3 mg/kg,921 ng·h/mL
same,F of d-amphetamine,[5]; 3 mg/kg,84%
same,Tmax of d-amphetamine,[5]; 3 mg/kg,90 min
same,Cmax of d-amphetamine,[5]; 3 mg/kg,217.2 ng/mL
same,AUCinf alt. calc. of d-amphetamine,[5]; 3 mg/kg,"1,059"
same,AUC0-8 of d-amphetamine,[5]; 6 mg/kg,"1,319 ng · h/mL"
same,AUCinf of d-amphetamine,[5]; 6 mg/kg,"1,362 ng · h/mL"
same,F of d-amphetamine,[5]; 6 mg/kg,62%
same,Tmax of d-amphetamine,[5]; 6 mg/kg,15 min
same,Cmax of d-amphetamine,[5]; 6 mg/kg,815.3 ng/mL
same,AUCinf alt. calc. of d-amphetamine,[5]; 6 mg/kg,1429
same,AUC0-8 of d-amphetamine,[5]; 12 mg/kg,"4,252 ng · h/mL"
same,AUCinf of d-amphetamine,[5]; 12 mg/kg,"4,428 ng · h/mL"
same,F of d-amphetamine,[5]; 12 mg/kg,101%
same,Tmax of d-amphetamine,[5]; 12 mg/kg,15 min
same,Cmax of d-amphetamine,[5]; 12 mg/kg,"1,533.1 ng/mL"
same,AUCinf alt. calc. of d-amphetamine,[5]; 12 mg/kg,"4,636"
same,AUCinf of d-amphetamine,[5]; 60 mg/kg,"48,707 ng · h/mL"
same,F of d-amphetamine,[5]; 60 mg/kg,223%
same,Tmax of d-amphetamine,[5]; 60 mg/kg,60 min
same,Cmax of d-amphetamine,[5]; 60 mg/kg,"13,735 ng/mL"
same,AUCinf alt. calc. of d-amphetamine,[5]; 60 mg/kg,"48,707"
same,Tmax of d-amphetamine,[5]; […],30 min
same,Time of mean peak plasma level of d-amphetamine,[6]; IV,5 min
same,Time of mean peak responses,[6]; IV,15 min
same,Mean maximum response on Subject Liking VAS vs placebo,[6]; [8],significantly greater than placebo
same,Subjects (of 9) who would take the treatment again,[6]; [8],Six
same,Mean peak plasma level of d-amphetamine,"[6]; stimulant abusers, IV over 2 minutes, L-lysine-d-amphetamine 50 mg",77.7 ng/mL
same,DAP % Change,[7]; Time 0,0%
same,LVP % Change,[7]; Time 0,0%
same,MAP % Change,[7]; Time 0,0%
same,MAP mean arterial pressure,[7]; Time 0,84 mmHg
same,SAP % Change,[7]; Time 0,0%
same,SAP systolic arterial pressure,[7]; Time 0,111 mmHg
same,DAP % Change,[7]; Time 5,117%
same,LVP % Change,[7]; Time 5,107%
same,MAP % Change,[7]; Time 5,109%
same,MAP mean arterial pressure,[7]; Time 5,176 mmHg
same,SAP % Change,[7]; Time 5,97%
same,SAP systolic arterial pressure,[7]; Time 5,218 mmHg
same,DAP % Change,[7]; Time 15,45%
same,LVP % Change,[7]; Time 15,52%
same,MAP % Change,[7]; Time 15,49%
same,MAP mean arterial pressure,[7]; Time 15,125 mmHg
same,SAP % Change,[7]; Time 15,52%
same,SAP systolic arterial pressure,[7]; Time 15,168 mmHg
same,DAP % Change,[7]; Time 25,30%
same,LVP % Change,[7]; Time 25,37%
